Assay results published in patent US6362369B1, “Phthalic acid diamide derivatives fluorine-containing aniline compounds as starting material, agricultural and horticultural insecticides, and a method for application of the insecticides” (Nihon Nohyaku Co., Ltd., priority 1997, dated 2002).

Assays:
Assay type in all cases: in vivo
[1] = system: diamondback moth (Plutella xylostella); assay: Insecticidal effect on diamondback moth (Test Example 1); settings: diamondback moth; judged by the mortality criterion of Test Example 1
How it was run: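 Eggs laid by adult moths on Chinese cabbage seedlings, which were immersed in test solution, air-dried and kept at 25 °C. Hatched insects counted 6 days after immersion and mortality calculated, with effect graded by criterion; triplicate groups of 10 insects.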

[2] = system: common cutworm (Spodoptera Litura); assay: Insecticidal effect on common cutworm (Test Example 2); settings: 500 ppm; cabbage leaf immersed; second-instar larvae of common cutworm; eight days after inoculation; 25° C.
How it was run: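 Mortality is the read-out: larvae are counted as dead or alive on day 8 and the percentage is graded by an effect criterion. Second-instar larvae are kept with the air-dried treated material in a sealed dish at 25° C, in triplicate groups of ten.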

[3] = system: rice leafroller (Cnaphalocrocis medinalis); assay: Insecticidal effect on rice leafroller (Test Example 3); settings: 500 ppm; rice lamina immersed; third-instar larvae of rice leafroller; four days after inoculation; 25° C., humidity 70%
How it was run: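 Groups of 10 third-instar larvae, in triplicate, are placed on air-dried lamina resting on wet filter paper. Incubation runs four days at 25° C with 70% humidity before survivors and dead are tallied.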

Structure (SMILES) | Insecticidal effect, Test Example 1 [1] | Insecticidal effect, Test Example 2 [2] | Insecticidal effect, Test Example 3 [3]
CC(C)NC(=O)c1ccccc1C(=O)Nc1ccc(OC(F)F)cc1C(F)(F)F [compound 83] | A (100) | A (100) | A (100)
CC(C)NC(=O)c1c(Cl)cccc1C(=O)Nc1ccc(C(F)(C(F)(F)F)C(F)(F)F)cc1 [compound 89] | A (100) | B (99-90) | A (100)
CC(C)NC(=O)c1c(Cl)cccc1C(=O)Nc1ccc(C(F)(F)C(F)(F)C(F)(F)F)cc1 [compound 90] | A (100) | A (100) | B (99-90)
CC(C)NC(=O)c1c(Cl)cccc1C(=O)Nc1ccc(C(F)(F)C(F)(F)C(F)(F)C(F)(F)F)cc1 [compound 91] | A (100) | A (100) | A (100)
CC(C)NC(=O)c1c(Cl)cccc1C(=O)Nc1ccc(OC(F)(F)C(F)OC(F)(F)C(F)(F)C(F)(F)F)cc1 (stereo not drawn) [compound 93] | A (100) | A (100) | A (100)
CC(C)NC(=O)c1c(Cl)cccc1C(=O)Nc1cccc([S+]([O-])C(F)(F)F)c1 (stereo not drawn) [compound 100] | A (100) | A (100) | A (100)
CC(C)NC(=O)c1c(Cl)cccc1C(=O)Nc1ccc(SC(F)(F)C(F)F)cc1 [compound 102] | A (100) | D (79-50) | A (100)
CC(C)NC(=O)c1c(Cl)cccc1C(=O)Nc1ccc(SC(F)(F)C(F)(F)Br)cc1 [compound 103] | A (100) | C (89-80) | A (100)
CC(=O)c1ccc(NC(=O)c2cccc(Cl)c2C(=O)NC(C)C)cc1 [compound 109] | A (100) | A (100) | C (89-80)
CC(C)NC(=O)c1c(Cl)cccc1C(=O)Nc1cccc(Cl)c1Cl [compound 111] | A (100) | C (89-80) | B (99-90)
CC(C)NC(=O)c1c(Cl)cccc1C(=O)Nc1ccc(Cl)cc1Cl [compound 112] | A (100) | A (100) | A (100)
CC(C)NC(=O)c1c(Cl)cccc1C(=O)Nc1ccc(F)cc1F [compound 113] | A (100) | B (99-90) | A (100)
CC(C)NC(=O)c1c(Cl)cccc1C(=O)Nc1ccc(F)cc1Cl [compound 114] | A (100) | A (100) | A (100)
CC(C)NC(=O)c1c(Cl)cccc1C(=O)Nc1ccc(Cl)cc1F [compound 115] | A (100) | C (89-80) | A (100)
CC(C)NC(=O)c1c(Cl)cccc1C(=O)Nc1ccc(F)c(F)c1F [compound 116] | A (100) | D (79-50) | A (100)
Cc1cccc(NC(=O)c2cccc(Cl)c2C(=O)NC(C)C)c1C [compound 117] | A (100) | A (100) | A (100)
Cc1c(Cl)cccc1NC(=O)c1cccc(Cl)c1C(=O)NC(C)C [compound 118] | A (100) | A (100) | A (100)
Cc1cc(Cl)ccc1NC(=O)c1cccc(Cl)c1C(=O)NC(C)C [compound 119] | A (100) | A (100) | A (100)
Cc1ccc(Cl)cc1NC(=O)c1cccc(Cl)c1C(=O)NC(C)C [compound 120] | A (100) | D (79-50) | A (100)
Cc1cc(Br)ccc1NC(=O)c1cccc(Cl)c1C(=O)NC(C)C [compound 121] | A (100) | A (100) | A (100)
Cc1cc(I)ccc1NC(=O)c1cccc(Cl)c1C(=O)NC(C)C [compound 122] | A (100) | A (100) | A (100)

Structure (SMILES) | Insecticidal effect, Test Example 1 [1] | Insecticidal effect, Test Example 2 [2] | Insecticidal effect, Test Example 3 [3]
COc1ccc(NC(=O)c2cccc(Cl)c2C(=O)NC(C)C)c(C)c1C [compound 124] | A (100) | A (100) | A (100)
CC(C)NC(=O)c1c(Cl)cccc1C(=O)Nc1ccc(C(F)(F)F)cc1Cl [compound 125] | A (100) | B (99-90) | A (100)
CC(C)NC(=O)c1c(Cl)cccc1C(=O)Nc1ccc(C(F)(C(F)(F)F)C(F)(F)F)cc1Cl [compound 126] | A (100) | A (100) | A (100)
Cc1cc(C(F)(F)F)ccc1NC(=O)c1cccc(Cl)c1C(=O)NC(C)C [compound 127] | A (100) | A (100) | A (100)
Cc1cc(C(F)(F)C(F)(F)F)ccc1NC(=O)c1cccc(Cl)c1C(=O)NC(C)C [compound 128] | A (100) | D (79-50) | A (100)
Cc1cc(OC(F)(F)C(Cl)(Cl)Cl)ccc1NC(=O)c1cccc(Cl)c1C(=O)NC(C)C [compound 129] | A (100) | A (100) | A (100)
Cc1cc(C(F)(F)C(F)(F)C(F)(F)F)ccc1NC(=O)c1cccc(Cl)c1C(=O)NC(C)C [compound 130] | A (100) | A (100) | A (100)
Cc1cc(C(F)(F)C(F)(F)C(F)(F)C(F)(F)F)ccc1NC(=O)c1cccc(Cl)c1C(=O)NC(C)C [compound 132] | A (100) | A (100) | A (100)
Cc1cc(C(F)(F)C(F)(F)C(F)(F)C(F)(F)C(F)(F)C(F)(F)F)ccc1NC(=O)c1cccc(Cl)c1C(=O)NC(C)C [compound 133] | A (100) | A (100) | A (100)
CC(C)NC(=O)c1c(Cl)cccc1C(=O)Nc1ccc(OC(F)(F)F)cc1Cl [compound 135] | A (100) | A (100) | A (100)
CC(C)NC(=O)c1c(Cl)cccc1C(=O)Nc1ccc(OC(F)(F)F)cc1Br [compound 136] | A (100) | A (100) | A (100)
Cc1cc(OC(F)F)ccc1NC(=O)c1cccc(Cl)c1C(=O)NC(C)C [compound 138] | A (100) | A (100) | A (100)
Cc1cc(OC(F)(F)F)ccc1NC(=O)c1cccc(Cl)c1C(=O)NC(C)C [compound 139] | A (100) | A (100) | A (100)
Cc1cc(OC(F)(F)Br)ccc1NC(=O)c1cccc(Cl)c1C(=O)NC(C)C [compound 140] | A (100) | A (100) | A (100)
Cc1c(NC(=O)c2cccc(Cl)c2C(=O)NC(C)C)cccc1OC(F)(F)C(F)Cl (stereo not drawn) [compound 142] | A (100) | A (100) | B (99-90)
Cc1cc(OC(F)(F)C(F)Cl)ccc1NC(=O)c1cccc(Cl)c1C(=O)NC(C)C (stereo not drawn) [compound 143] | A (100) | A (100) | A (100)
Cc1cc(OC(F)(F)C(F)(F)Br)ccc1NC(=O)c1cccc(Cl)c1C(=O)NC(C)C [compound 144] | A (100) | A (100) | A (100)
Cc1cc(OC(F)(F)C(F)(Cl)Cl)ccc1NC(=O)c1cccc(Cl)c1C(=O)NC(C)C [compound 145] | A (100) | A (100) | A (100)
Cc1cc(OC(F)(F)C(F)C(F)(F)F)ccc1NC(=O)c1cccc(Cl)c1C(=O)NC(C)C (stereo not drawn) [compound 146] | A (100) | A (100) | A (100)
Cc1cc(OC(F)(F)C(F)(Br)C(F)(F)F)ccc1NC(=O)c1cccc(Cl)c1C(=O)NC(C)C (stereo not drawn) [compound 148] | A (100) | A (100) | A (100)
